# Assay results from US20140066370A1, “Polypeptide Conjugate” (priority 2009, published 2014).
# Where two headings read alike, the source gives them in different places. Marks after values point to notes of the source that are not given here.
# Legend:
# rats = assay: acute kaolin intake (pica, nausea) and chow intake in rats; format: in vivo, rat; details: 24 hr post injection
# Description: To investigate possible nausea effects of the conjugate polypeptide, acute kaolin intake was measured in rats. Pica behavior (ingestion of dirt/clay) is a marker of nausea in rodents, typically associated with reduced food intake and weight loss. Pica can be assessed by measuring intake of the synthetic clay kaolin. […] Rats were acclimated to kaolin for 3 days as kaolin clay mixed in with regular chow. A 4 hr and a 24 hr baseline kaolin and chow intake were then measured. Subsequently, rats were fasted for approximately 16 hrs after which test compound was injected at the dose indicated below. At 24 hr post injection chow and kaolin consumption was measured.
# [1] = tested on: diet-induced obese (DIO) male Sprague Dawley rats; assay: DIO rat 4-week sc infusion: body composition by NMR; format: in vivo
# Description: (§1) Various metabolic and PK parameters were evaluated.
# (§2) Study Design. The Polypeptide Conjugates were tested relative to vehicle (50% DMSO in sterile water) and parent compounds alone and in combination (see Table 1).
# (§3) Food intake and body weight were measured weekly. Body composition was assessed on day −1 and day 28 using an NMR instrument (Echo Medical Systems, Houston, Tex.). Adiposity (percent fat mass) was defined as the amount of fat mass relative to body weight (fat mass/body weight×100). Blood was collected via tail vein on day 14. On day 28 a sample of blood was drawn via the jugular vein and animals were euthanized by isoflurane overdose. Mini-pumps were immediately removed, animals were subjected to a brief NMR scan, and tissues were collected for future histological examination and preliminary toxicological assessment.
# (§4) Statistical Analysis. Data were analyzed using one-way analysis of variance (ANOVA) with Newman-Keuls post-hoc comparisons. Significance was assumed for p<0.05. Graphs were generated using Prism 4 for Windows (Graphpad Software, San Diego, Calif.). All data points are expressed as mean±SEM.
# To correct for loss of body weight, reductions in fat and lean mass were adjusted for terminal body weight to calculate the change in adiposity (percent fat mass) and change in percent lean mass.
# [2] = tested on: diet-induced obese (DIO) male Sprague Dawley rats; assay: DIO rat 4-week constant sc infusion: cumulative food intake; format: in vivo; details: highest dose tested (100 nmol/kg/d)
# Description: as §1, §2, §3, §4
# ob/ob mice = assay: 28 days of exposure in ob/ob mice (obese and diabetic); format: in vivo, mouse
# [3] = in vivo blood calcium lowering (amylin agonist property)
# [4] = human plasma, 5 hr incubation; detection limit 10%
# [5] = acute reduction of food intake; format: in vivo
# [6] = tested on: diet-induced obese (DIO) male Sprague Dawley rats; assay: DIO rat 4-week constant sc infusion: body weight; format: in vivo
# Description: as §1, §2, §3, §4
# NIH/Swiss female mice = assay: basal glucose lowering assay (Oral Glucose Tolerance Test; OGTT); format: in vivo, mouse; details: IP at t=-5 min, 4-hour fasted mice, glucose gavage […], blood glucose at t=30 minutes
# Description: Polypeptide Conjugates and parent compounds were analyzed in an in vivo basal glucose lowering assay. This assay reflects the conjugate polypeptide's ability to enhance insulin-mediated glucose clearance of orally administered glucose challenge (Oral Glucose Tolerance Test; OGTT). The OGTT is used to diagnose diabetes, although the simpler fasting plasma glucose test, which measures a subject's plasma glucose level after fasting for at least eight hours, is preferred. The following procedure was used: Test compound at various concentrations was injected intraperitoneally (IP) at t=−5 min to 4-hour fasted NIH/Swiss female mice. Glucose gavage (1.5 g/kg) was given at t=0. Sample was taken at t=30 minutes as tail blood glucose using a OneTouch® Ultra® (LifeScan, Inc., Milpitas, Calif.). Significant effects were identified by ANOVA (p<0.05), followed by Dunnett's post test using GraphPad Prism version 4.00 for Windows (GraphPad Software, San Diego Calif.).
# [7] = human kidney brush border membrane matrices, 5 hr incubation; detection limit 10%
# [8] = tested on: diet-induced obese (DIO) male Sprague Dawley rats; assay: DIO rat 4-week sc infusion: hormone and metabolite analyses (HbA1c, insulin, lipids, glucose); format: in vivo; details: for Insulin 14 day / Insulin 28 day: fed state plasma; for Glucose / HDL cholesterol / Total cholesterol / Triglycerides: plasma after 28 days
# Description: as §1, §2, §3, §4
# (§5) Hormone and metabolite analyses. Plasma levels of study drug were measured at day 14 and termination by an ELISA. Whole blood percent hemoglobin A1c (% HbA1c), plasma triglyceride, total cholesterol, HDL cholesterol and plasma glucose at day 14 and at termination were measured using an Olympus bioanalyzer (Olympus America Diagnostics). Plasma insulin levels at day 14 and at termination were analyzed by an ELISA kit (Rat/Mouse Insulin ELISA, Linco Diagnostics).
# Plasma parameters. The effects of the parent and Polypeptide Conjugate compounds on the following plasma parameters were determined: percent hemoglobin A1c (HbA1c), fed state plasma insulin, and concentration of the Polypeptide Conjugate in plasma, at 14 and 28 days.
# male Sprague Dawley rats = assay: delay of gastric emptying (acetaminophen appearance in plasma); format: in vivo, rat; details: for Percent Inhibition of Gastric Emptying 4 hr / Percent Inhibition of Gastric Emptying 6 hr / Percent Inhibition of Gastric Emptying 8 hr: 1 nmol/kg single sc injection
# Description: Polypeptide Conjugates and parent compounds were analyzed for their ability to delay gastric emptying in rats. […] Rats then received an oral gavage of 33 mg acetaminophen/1 ml Orablend (Paddock Laboratories, Inc., MN USA) at t=3.5 hr, 5.5 hr or 7.5 hr post-injection. Blood was collected for measurement of acetaminophen at 4 hr, 6 hr or 8 hr after SC injection. Gastric emptying was assessed by the appearance of acetaminophen in plasma 30 min after oral gavage.
# [9] = DIO rats, sc infusion
# Description: as §1, §2, §3, §5
# amylin receptor = biological target: T1, amylin receptor (Homo sapiens, UniProt P30988); assay: binding selectivity for amylin receptor against the CGRP receptor
# T1 sequence (P30988 25-474): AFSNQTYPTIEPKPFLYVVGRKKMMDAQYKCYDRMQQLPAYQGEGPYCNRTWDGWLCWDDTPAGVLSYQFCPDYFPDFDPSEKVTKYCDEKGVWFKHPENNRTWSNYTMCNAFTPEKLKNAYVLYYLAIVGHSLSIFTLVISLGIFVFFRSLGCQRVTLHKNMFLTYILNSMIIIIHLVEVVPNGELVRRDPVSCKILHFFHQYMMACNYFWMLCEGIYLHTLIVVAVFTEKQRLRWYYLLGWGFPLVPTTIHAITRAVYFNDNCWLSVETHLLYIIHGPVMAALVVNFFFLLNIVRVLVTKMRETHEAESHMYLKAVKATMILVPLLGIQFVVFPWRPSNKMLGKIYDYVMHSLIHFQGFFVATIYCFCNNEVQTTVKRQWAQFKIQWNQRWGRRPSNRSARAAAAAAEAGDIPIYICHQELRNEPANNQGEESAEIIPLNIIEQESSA
# calcitonin receptors = biological target: T2, calcitonin receptors (Homo sapiens, UniProt P30988); assay: binding selectivity for calcitonin receptors against the CGRP receptor
# T2 sequence (P30988 25-474): T1 sequence (P30988 25-474)
sequence,measurement,setting,value
HGEGTFTSDLSKQLEEEAVRLFIEWLKQGGPSKEIISGGGKCNTATCVLGRLSQELHRLQ TYPRTNTGSNTY-NH2 [Cmpd 2A],Inhibited food intake,rats; 30 nmol/kg/d,Yes ~68%
same,Kaolin intake,rats; 30 nmol/kg/d,0.3 g
same,Terminal Fat Mass,"[1]; 3 nmol/kg/d, day 28","71.4 ± 12.9^a,b g"
same,Terminal Lean Mass,"[1]; 3 nmol/kg/d, day 28","330.5 ± 7.3^a,b g"
same,Terminal Fat Mass,"[1]; 10 nmol/kg/d, day 28","35.8 ± 7.7^c,d g"
same,Terminal Lean Mass,"[1]; 10 nmol/kg/d, day 28",280.6 ± 22.6^b g
same,Terminal Fat Mass,"[1]; 30 nmol/kg/d, day 28","32.4 ± 3.8^c,d g"
same,Terminal Lean Mass,"[1]; 30 nmol/kg/d, day 28","306.5 ± 13.2^a,b g"
same,Terminal Fat Mass,"[1]; 100 nmol/kg/d, day 28",12.7 ± 4.3^d g
same,Terminal Lean Mass,"[1]; 100 nmol/kg/d, day 28",277.8 ± 17.8^b g
same,change in adiposity (percent fat mass),"[1]; 100 nmol/kg/d, day 28",−12.2±1.3%
same,adiposity compared to vehicle controls,"[1]; all doses of Table 1, day 28",significantly reduced
same,percent lean mass relative to vehicle controls,"[1]; all doses, day 28",did not alter percent lean mass
same,total food intake relative to single parent peptide administration,[2],significantly reduced
same,HbA1c,ob/ob mice,HbA1c reduction
same,body weight,ob/ob mice,body weight loss
same,fasted blood glucose,ob/ob mice,fasted blood glucose-lowering
same,blood calcium,[3],lower blood calcium
same,metabolites detected,[4],No metabolites were detected
same,potency at reducing food intake acutely compared with Cmpd 3A,[5],more potent
same,potency at reducing body weight via sustained infusion relative to Cmpd 3A,[6]; DIO rats,several fold more potent
same,four week vehicle-corrected weight loss,"[6]; DIO rats, sc infusion, 100 nmol/kg/d",−31.5±2.7%
same,Maximal weight loss,"[6]; DIO rats, sc infusion, 100 nmol/kg/d group",−27.8±5.3%
same,body weight over the 28 day treatment relative to vehicle,"[6]; DIO rats, sc infusion, doses of Table 1 (conjugates 3, 10, 30 and 100 nmol/kg/d), p<0.05",dose-dependently reduced body weight significantly
same,ED50 in OGTT,NIH/Swiss female mice,1.4 nmol/kg
same,metabolites detected,[7],No metabolites were detected
same,HbA1c 14 day,[8]; 3 nmol/kg/day,4.9 ± 0.1%
same,Insulin 14 day,[8]; 3 nmol/kg/day,1.8 ± 0.6^b ng/mL
same,HbA1c 28 day,[8]; 3 nmol/kg/day,4.6 ± 0.1%
same,Insulin 28 day,[8]; 3 nmol/kg/day,2.2 ± 0.9 ng/mL
same,Glucose,[8]; 3 nmol/kg/day,132 ± 9 mg/dL
same,HDL cholesterol,[8]; 3 nmol/kg/day,33 ± 2 mg/dL
same,Total cholesterol,[8]; 3 nmol/kg/day,116 ± 8 mg/dL
same,Triglycerides,[8]; 3 nmol/kg/day,295 ± 75^b mg/dL
same,HbA1c 14 day,[8]; 10 nmol/kg/day,4.9 ± 0.1^b %
same,Insulin 14 day,[8]; 10 nmol/kg/day,1.5 ± 0.2^b ng/mL
same,HbA1c 28 day,[8]; 10 nmol/kg/day,4.6 ± 0.1%
same,Insulin 28 day,[8]; 10 nmol/kg/day,1.0 ± 0.2 ng/mL
same,Glucose,[8]; 10 nmol/kg/day,115 ± 6 mg/dL
same,HDL cholesterol,[8]; 10 nmol/kg/day,33 ± 5 mg/dL
same,Total cholesterol,[8]; 10 nmol/kg/day,115 ± 14 mg/dL
same,Triglycerides,[8]; 10 nmol/kg/day,146 ± 41^b mg/dL
same,HbA1c 14 day,[8]; 30 nmol/kg/day,4.8 ± 0.1%
same,Insulin 14 day,[8]; 30 nmol/kg/day,1.8 ± 0.5^b ng/mL
same,HbA1c 28 day,[8]; 30 nmol/kg/day,4.6 ± 0.1%
same,Insulin 28 day,[8]; 30 nmol/kg/day,0.8 ± 0.1 ng/mL
same,Glucose,[8]; 30 nmol/kg/day,111 ± 2 mg/dL
same,HDL cholesterol,[8]; 30 nmol/kg/day,32 ± 1 mg/dL
same,Total cholesterol,[8]; 30 nmol/kg/day,112 ± 4 mg/dL
same,Triglycerides,[8]; 30 nmol/kg/day,128 ± 25^b mg/dL
same,HbA1c 14 day,[8]; 100 nmol/kg/day,4.8 ± 0.1%
same,Insulin 14 day,[8]; 100 nmol/kg/day,1.2 ± 0.2^b ng/mL
same,HbA1c 28 day,[8]; 100 nmol/kg/day,4.5 ± 0.1%
same,Insulin 28 day,[8]; 100 nmol/kg/day,0.7 ± 0.1 ng/mL
same,Glucose,[8]; 100 nmol/kg/day,110 ± 4 mg/dL
same,HDL cholesterol,[8]; 100 nmol/kg/day,30 ± 1 mg/dL
same,Total cholesterol,[8]; 100 nmol/kg/day,107 ± 3 mg/dL
same,Triglycerides,[8]; 100 nmol/kg/day,139 ± 17^b mg/dL
same,Percent Inhibition of Gastric Emptying 4 hr,male Sprague Dawley rats,79
same,Percent Inhibition of Gastric Emptying 6 hr,male Sprague Dawley rats,49
same,Percent Inhibition of Gastric Emptying 8 hr,male Sprague Dawley rats,4
same,plasma drug level (Cmpd 2A or Cmpd 1A) 14 day,[9]; 3 nmol/kg/day,15 ± 6^a ng/mL
same,plasma drug level (Cmpd 2A or Cmpd 1A) 28 day,[9]; 3 nmol/kg/day,65 ± 35^a ng/mL
same,plasma drug level (Cmpd 2A or Cmpd 1A) 14 day,[9]; 10 nmol/kg/day,48 ± 16^a ng/mL
same,plasma drug level (Cmpd 2A or Cmpd 1A) 28 day,[9]; 10 nmol/kg/day,345 ± 67^a ng/mL
same,plasma drug level (Cmpd 2A or Cmpd 1A) 14 day,[9]; 30 nmol/kg/day,65 ± 7^a ng/mL
same,plasma drug level (Cmpd 2A or Cmpd 1A) 28 day,[9]; 30 nmol/kg/day,540 ± 232^a ng/mL
same,plasma drug level (Cmpd 2A or Cmpd 1A) 14 day,[9]; 100 nmol/kg/day,284 ± 79^b ng/mL
same,plasma drug level (Cmpd 2A or Cmpd 1A) 28 day,[9]; 100 nmol/kg/day,1985 ± 717^b ng/mL
HGEGTFTSDLSKQMEEEAVRLFIEWLKNGGGKCNTATCVLGRLSQELHRLQTYPRTNT GSNTY-NH2 [Cmpd 3A],Inhibited food intake,rats; 15 nmol/kg/d,Yes ~20%
same,Kaolin intake,rats; 15 nmol/kg/d,0.5 g
same,selectivity for amylin receptor against the CGRP receptor,amylin receptor,> 100 fold
same,weight loss,[6]; 100 nmol/kg/d of previous reference conjugates,~20%
same,ED50 in OGTT,NIH/Swiss female mice,6 nmol/kg
same,Percent Inhibition of Gastric Emptying 4 hr,male Sprague Dawley rats,33
same,Percent Inhibition of Gastric Emptying 6 hr,male Sprague Dawley rats,0
same,Percent Inhibition of Gastric Emptying 8 hr,male Sprague Dawley rats,0
same,inhibition of gastric emptying,male Sprague Dawley rats; at the time point and doses tested,did not significantly inhibit gastric emptying
same,selectivity for calcitonin receptors against the CGRP receptor,calcitonin receptors,> 280 fold
